Measured values taken from patent publication US8383656B2, “Thiazolidinedione energy restriction-mimetic agents” (The Ohio State University Research Foundation, priority 2009, dated 2013).
Entries after “also recorded” stand apart in the source; their conditions may differ. Like-named read-outs stand apart in the source and are kept apart here.

How the values were obtained:
AMPK = experiment: Western blot of AMPK phosphorylation in LPS-treated THP-1 macrophages; format: cell-based, human
Method: Western blotting. THP-1 cells were lysed in SDS-sample buffer after washing with iced-PBS buffer, and then heated at 95° C. for 20 minutes. Protein extracts were prepared using M-PER mammalian protein extraction reagent (Pierce, Rockford, Ill.), containing freshly added 1% phosphatase and protease inhibitor cocktails (Calbiochem). After centrifugation of lysates at 13000 g for 10 min, supernatants were collected, and the protein concentration in each sample was determined by protein assay (Bio-Rad). Protein extracts were then suspended in 2×SDS sample buffer, separated by electrophoresis in 10% SDS-polyacrylamide gels, and transferred to nitrocellulose membranes using a semidry transfer cell. The transblotted membrane was washed twice with Tris-buffered saline containing 0.1% Tween-20 (TBST). After blocking with TBST containing 5% nonfat milk for 1 h, the membrane was incubated with primary antibodies: p172Thr-AMPK, AMPK, p705Tyr-STAT3 and STAT3 (Cell Signaling Technology; Beverly, Mass.); p389Thr-p70S6K and p70S6K (Santa Cruz Biotechnology; Santa Cruz, Calif.), each at 1:1,000 dilution in 1% TBST-nonfat milk at 4° C. overnight. After incubation with the primary antibody, the membrane was washed three times with TBST for a total of 30 min, followed by incubation with horseradish peroxidase-conjugated goat anti-mouse IgG (diluted 1:2500) for 1 h at room temperature. […]

THP-1 cells = experiment: MTT viability of THP-1 cells; format: cell-based, human; conditions: at the concentrations used for IL-6 ELISA (dose range b224, 10 μM b226, 1 μM b229)
[1] = tested on: LPS-stimulated IL-6 production in THP-1 macrophages; experiment: ELISA of LPS-stimulated IL-6 production in THP-1 macrophages; format: cell-based, human; conditions: for first-tier screening result (AMPK/mTOR activation status and IL-6/IL-6 receptor signaling): LPS-stimulated THP-1 macrophages; for inhibition at 10 µM: read-out: inhibition of IL-6 production
Method: (§1) Cells and cell culture. THP-1 monocytic cells were purchased from the American Type Culture Collection (Rockville, Md.), and maintained with L-glutamine-containing RPMI 1640 supplemented with 10% fetal bovine serum (FBS), 0.25% glucose, 0.01% sodium pyruvate, 50 μM 2-mercaptoethanol, and 0.1 ml/ml penicillin/streptomycin/L-glutamine. Differentiation of THP-1 monocytes into macrophages was carried out by exposure to PMA (50 nM) in the aforementioned RPMI 1640 medium for 24 h. Colon-26 (C-26) adenocarcinoma cells were provided by a researcher at The Ohio State University. The C-26 cells were maintained in RPMI 1640 medium supplemented with 5% FBS and 1% penicillin/streptomycin.
ELISA. IL-6 release by differentiated THP-1 macrophages in response to 10 ng/ml of LPS was analyzed by using the IL-6 ELISA kit (Cayman Chemical Co.; Ann Arbor, Mich.) according to the manufacturer's instruction in triplicate. The effect of each test compound on LPS-stimulated IL-6 release is presented as percent inhibition and was calculated using the following formula: percentage inhibition=100%×{1−[(O.D. of sample−O.D. of control)/(O.D. of LPS−O.D. of control)]}.

[2] = tested on: AMPK in C-26 colon adenocarcinoma cells; experiment: Western blot of AMPK phosphorylation in C-26 cells; format: cell-based; conditions: dose- and time-dependent, 10% FBS-containing medium
Method: as §1
Western blotting. THP-1 cells were lysed in SDS-sample buffer after washing with iced-PBS buffer, and then heated at 95° C. for 20 minutes. Protein extracts were prepared using M-PER mammalian protein extraction reagent (Pierce, Rockford, Ill.), containing freshly added 1% phosphatase and protease inhibitor cocktails (Calbiochem). After centrifugation of lysates at 13000 g for 10 min, supernatants were collected, and the protein concentration in each sample was determined by protein assay (Bio-Rad). Protein extracts were then suspended in 2×SDS sample buffer, separated by electrophoresis in 10% SDS-polyacrylamide gels, and transferred to nitrocellulose membranes using a semidry transfer cell. […]

[3] = tested on: human tumor cell lines of the cancer screening panel; experiment: NCI60 cell line screening; format: cell-based; conditions: 48 h, SRB; variety of cancer cell types
Method: The NCI60 screening method was carried out using the following methodology. The human tumor cell lines of the cancer screening panel were grown in RPMI 1640 medium containing 5% fetal bovine serum and 2 mM L-glutamine. The cells were then inoculated into 96 well microtiter plates in 100 μL at plating densities ranging from 5,000 to 40,000 cells/well depending on the doubling time of individual cell lines. After cell inoculation, the microtiter plates are incubated at 37° C., 5% CO2, 95% air and 100% relative humidity for 24 h prior to addition of the thiazolidinedione derivatives. […]
Following drug addition, the plates were incubated for an additional 48 h at 37° C., 5% CO2, 95% air, and 100% relative humidity. […] Bound stain is subsequently solubilized with 10 mM trizma base, and the absorbance was read on an automated plate reader at a wavelength of 515 nm. […] Using the seven absorbance measurements [time zero, (Tz), control growth, (C), and test growth in the presence of drug at the five concentration levels (Ti)], the percentage growth is calculated at each of the drug concentrations levels. Percentage growth inhibition is calculated as: [(Ti−Tz)/(C−Tz)]×100 for concentrations for which Ti>/=Tz [(Ti−Tz)/Tz]×100 for concentrations for which Ti<Tz.
Three dose response parameters were calculated for each experimental agent. […]

tumor xenograft = experiment: Tumor xenograft growth and acute toxicity; conditions: in vivo
[4] = tested on: conversion of LC3-I to LC3-II in LNCaP cells; experiment: GFP-LC3 conversion (autophagy) in LNCaP cells; format: cell-based; conditions: 5 μM, GFP-LC3-transfected LNCaP cells
Method: (§2) Transfections were performed by electroporation using Nucleofector kit R of the Amaxa Nucleofector system (Amaxa Biosystems, Cologne, Germany). LNCaP cells were transfected with the following plasmids or siRNA: WT- and H363Y-Flag-Sirt1 (DN-Sirt1), WT- and K45R-Myc-AMPK (DN-AMPK), GFP-LC3, TSC2 shRNA, and DDIT3 siRNA (GADD153). […] For the fluorescent microscopic analysis, LNCaP cells transfected with the GFP-LC3 expression plasmid or with scrambled or TSC2 shRNA were treated as indicated for 36 h. After cells were fixed with 3.7% formaldehyde at room temperature for 20 min, nuclear counterstaining was performed using a 4,6-diamidino-2-phenylindole (DAPI)-containing mounting medium (Vector Laborotaries, Burlingame, Calif.) before examination. Images were observed using a Nikon microscope (Eclipse TE300).

[5] = tested on: Sirt1 gene expression in LNCaP cells; experiment: Time course of Sirt1 expression in LNCaP cells (Western blot/RT-PCR); format: cell-based; conditions: OSU-CG12 10 μM, 2-DG 10 mM
Method: Total RNA was isolated from drug-treated LNCaP cells using the RNeasy mini kit (Qiagen, Valencia, Calif.), and then reverse-transcribed to cDNA using the Omniscript RT Kit (Qiagen) according to manufacturer's instructions. PCR products were separated electrophoretically in 1% agarose gels and visualized by ethidium bromide staining.
as §2

[6] = tested on: [3H]-2-DG uptake into LNCaP cells; experiment: Glucose uptake assay ([3H]-2-DG); format: cell-based; conditions: OSU-CG12 at 5 and 10 μM, resveratrol at 50 and 100 μM, P<0.05
Method: After washing cells with PBS, glucose uptake was initiated by addition of 1 mL of PBS containing 1 μCi/mL [^3H]-2-DG (Perkin Elmer, Waltham, Mass.) and […] nonradioactive 2-DG. After 5 min, glucose uptake was terminated by extensive washing with PBS, and cells were solubilized in 0.1% SDS buffer. Aliquots were taken for measurements of radioactivity using a scintillation counter LS6500 (Beckman).

[7] = tested on: LNCaP prostate cancer cells; experiment: MTT cell viability assay, LNCaP cells; format: cell-based; conditions: Homo sapiens
Method: The compounds were tested for their ability to decrease LNCaP prostate cancer cell viability as measured by the 3-(4,5-dimethylthiazol-2-yl)-2,5-diphenyltetrazolium bromide) (MTT) assay.
(§3) Cell viability was determined using the 3-(4,5-dimethylthiazol-2-yl)-2,5-diphenyltetrazolium bromide) (MTT) assay. LNCaP and MCF-7 cells were seeded in 96-well plates (5000 cells/well) and incubated in their respective culture media supplemented with 10% FBS for 24 h. […] Drug-containing medium was then replaced with 1×MTT (0.5 mg/mL in RPMI 1640), followed by incubation at 37° C. for 2 h. After removal of medium, the reduced MTT dye was solubilized in 200 μL/well DMSO, and absorbances were measured at 570 nm.

[8] = tested on: β-TrCP, Sp1, and androgen receptor (AR) expression in PrECs; experiment: Western blot of β-TrCP, Sp1 and AR in PrECs; format: cell-based; conditions: escalating concentrations, 48 h
[9] = tested on: MCF-7 breast cancer cells; experiment: MTT cell viability assay, MCF-7 cells; format: cell-based; conditions: Homo sapiens, MCF7, 72 h, 10% FBS-supplemented medium, read-out: IC50 in inhibiting the viability of MCF-7 breast cancer cells
Method: as §3

[10] = LNCaP, MTT, 72 h, 10% FBS-supplemented medium, read-out: IC50 in inhibiting the viability of LNCaP prostate cancer cells

CC1(COc2ccc(C=C3SC(=O)NC3=O)cc2)CCCCC1 [compound 62]
AMPK activation (p-AMPK level) (AMPK; 10 μM, 6 h, LPS-treated THP-1): effective in elevating the level of p-AMPK; also recorded: modest activities | effect on viability of THP-1 cells (THP-1 cells): neither agent inhibited the viability of THP-1 cells | effect on LPS-stimulated IL-6 production ([1]; 10 μM, 6 h, LPS-stimulated THP-1): modest activities

CC1(CN2C(=O)S/C(=C\c3ccc(NS(=O)(=O)c4ccc([N+](=O)[O-])c(C(F)(F)F)c4)cc3)C2=O)CCCCC1 [Compound 53, N-{4-[3-(1-Methyl-cyclohexylmethyl)-2,4-dioxo-thiazolidin-5-ylidene-methyl]-phenyl}-4-nitro-3-trifluoromethyl-benzenesulfonamide]
potency in activating AMPK relative to AICAR (AMPK; LPS-treated THP-1, 6 h, AICAR 0.5 mM): two-orders-of-magnitude higher | p-AMPK level in C-26 colon adenocarcinoma cells [2]: robust increases in the p-AMPK level | potency in blocking IL-6 release ([1]; 1 μM, 6 h, LPS-stimulated THP-1): optimal agent; also recorded: highest potency | first-tier screening result (AMPK/mTOR activation status and IL-6/IL-6 receptor signaling) ([1]; 10 μM): active | IC50 ([1]; Homo sapiens, THP-1, 6 h, 10% FBS-containing medium, read-out: IC50 for inhibition of LPS-stimulated IL-6 production): ~1 µM | inhibition at 10 µM ([1]; Homo sapiens, 10 μM, 6 h, LPS-stimulated THP-1): > 80%

CCC(CC)CN1C(=O)S/C(=C\c2ccc(O)c(C(F)(F)F)c2)C1=O [OSU-CG5, (Z)-3-(2-Ethyl-butyl)-5-(4-hydroxy-3-trifluoromethyl-benzylidene)-thiazolidine-2-4-dione]
antitumor potency in NCI 60 cell line screening [3]: significantly antitumor potency

CC1(CN2C(=O)S/C(=C\c3ccc(O)c(C(F)(F)F)c3)C2=O)CCCCC1 [OSU-CG12, (Z)-5-(4-Hydroxy-3-trifluoromethyl-benzylidene)-3-(1-methyl-cyclohexylmethy)-thiazolidine-2-4-dione]
acute toxicity (tumor xenograft): without incurring acute toxicity | suppression of tumor xenograft growth (tumor xenograft): effectiveness in suppressing tumor xenograft growth | accumulation of LC3-II (autophagy marker) [4]: time-dependent accumulation of LC3-II | duration of transient transcriptional activation of Sirt1 gene expression [5]: 1 h | inhibition of glucose uptake [6]: significantly inhibit glucose uptake | IC50 [7, 10]: 5.7 µM | IC50 ([7]; summary over LNCaP and MCF-7 cells, read-out: IC50 in suppressing cancer cell growth): 5 µM | expression levels of β-TrCP, Sp1, and AR in PrECs [8]: unaltered expression levels | IC50 [9]: 5 µM | first-tier screening result (AMPK/mTOR activation status and IL-6/IL-6 receptor signaling) ([1]; 10 μM): active | inhibition at 10 µM ([1]; Homo sapiens, THP-1, 6 h): > 80% | antitumor potency in NCI 60 cell line screening [3]: significantly antitumor potency

CC1(COc2ccc(CC3SC(=O)NC3=O)cc2)CCCCC1 (stereo not shown) [ciglitazone]
effect on viability of THP-1 cells (THP-1 cells): neither agent inhibited the viability of THP-1 cells | IC50 [7, 10]: 70 µM | IC50 [9]: 42 µM
